According to US20260374766A1, “METHODS FOR TREATING CANCER” (Antares Therapeutics, Inc., priority 2022, published 2026):
Where two headings read alike, the source gives them in different places.

Assays:
[1] = target: T1, p53 Y220C mutant protein (amino acid residues 94-293) (Homo sapiens, UniProt P04637, Y220C); assay: Surface Plasmon Resonance (SPR) assay, Kd_kinetic; format: binding; conditions: SPR, p53 Y220C, read-out: SPR P53 Y220C KD kinetic
T1 construct: p53 Y220C mutant protein (amino acid residues 94-293)
How it was run: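 Kinetic dissociation constants derived by 1:1 model fit of SPR data acquired at 16 or 20 °C, pH 7.5 Tris/NaCl running buffer with 1% DMSO.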

[2] = target: T1, p53 Y220C mutant protein (amino acid residues 94-293); assay: Thermal Shift Assay (TSA), dTM; format: binding; conditions: for ΔTm at 10 µM: 10 uM compound; for ΔTm at 100 µM: 100 uM compound
How it was run: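 First, the mutant DNA-binding domain (5 μM) was preincubated 3 hours at 20 °C with compound at 10 μM or 100 μM. Next, the sample was heated from 30 °C to 50 °C at 0.03 °C/second in the presence of Sypro Orange. Finally, TM was obtained from a two-state Boltzmann fit.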

p53 Y220C = p53 Y220C (Homo sapiens, UniProt P04637, Y220C); assay: Luciferase Reporter Assay (Luc), p53 response element, NClH1299 cells with inducible p53 Y220C; format: cell-based; conditions: luciferase reporter, NClH1299 inducible p53 Y220C, 6 hour; for AC50: read-out: Luc P53 Y220C AC50
How it was run: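 Luciferase activity is measured directly after One-Glo addition and a 5-minute room-temperature shake. Before that, cells plated at 5,000 per well receive doxycycline at 0.5 ug/mL for 24 hours, followed by compound for 6 hours.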

NUGC3 p53 Y220C = assay: Cell Proliferation Assay (CellTiter-Glo, CTG), NUGC3 p53 Y220C; format: cell-based; conditions: Homo sapiens, NUGC-3, 120 h, CellTiter-Glo, 5 days
How it was run: (§1)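 Tet-One inducible p53 Y220C or R273H constructs were stably introduced into NCI-H1299 by lentiviral transduction; NUGC3 was used as is. Cells (250-500 per well) were exposed to compound for 5 days, then CellTiter-Glo was added for 10 min at room temperature and IC50 was calculated from luminescence.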

H1299 p53 Y220C = assay: Cell Proliferation Assay (CellTiter-Glo, CTG), H1299 p53 Y220C (NClH1299-inducible p53 Y220C); format: cell-based; conditions: Homo sapiens, NCI-H1299, 120 h, CellTiter-Glo, 5 days
How it was run: as §1

H1299 p53 R273H = assay: Cell Proliferation Assay (CellTiter-Glo, CTG), H1299 p53 R273H (NClH1299-inducible p53 R273H); format: cell-based; conditions: Homo sapiens, NCI-H1299, 120 h, CellTiter-Glo, 5 days
How it was run: as §1

[3] = thermal shift, read-out: TSA P53 Y220C dTM (10 uM)
[4] = thermal shift, read-out: TSA P53 Y220C dTM (100 uM)
[5] = 10 uM tool compound as positive control
[6] = p53 Y220C, read-out: TSA P53 Y220C dTM
[7] = NClH1299-inducible p53 Y220C cells
[8] = NClH1299-inducible p53 R273H cells

SMILES	Kd ([1]; kinetic KD)	ΔTm at 10 µM [2, 3]	ΔTm at 100 µM [2, 4]	Emax (p53 Y220C; [5])	AC50 (p53 Y220C)	IC50 (NUGC3 p53 Y220C; NUGC3 p53 Y220C)	IC50 (H1299 p53 Y220C; H1299 p53 Y220C)	IC50 (H1299 p53 R273H; H1299 p53 R273H)	Kd [1]	ΔTm at 10 µM [2, 6]	AC50 (p53 Y220C; AC50)	Emax (p53 Y220C; Emax)	IC50 (NUGC3 p53 Y220C; NUGC3 cells)	IC50 (H1299 p53 Y220C; [7])	IC50 (H1299 p53 R273H; [8])	ΔTm at 100 µM [2, 6]
CNC(=O)c1cncc(NCC#Cc2nc3c(N[C@@H]4CCN(C)C[C@@H]4F)cccn3c2SC(F)(F)F)c1 [Example 142]	< 10 nM	≥ 10 °C	≥ 10 °C	< 70%	750 to 1500 nM	< 750 nM	750 to 1500 nM	≥ 10000 nM								
CNC(=O)c1ccc(NCC#Cc2nc3c(N[C@H]4CCn5nccc5C4)cccn3c2SC(F)(F)F)c(OC)c1 [Example 178]	10 to 100 nM	5 to 10 °C	5 to 10 °C	< 70%	1500 to 3000 nM	750 to 1500 nM	750 to 1500 nM	5000 to 8000 nM								
CNC(=O)c1ccc(NCC#Cc2nc3c(N[C@@H]4CN(C)C[C@@H]4F)cccn3c2SC(F)(F)F)c(OC)c1 [Example 103, 4-{[3-(8-{[(3R,4S)-4-fluoro-1-methylpyrrolidin-3-yl]amino}-3-[(trifluoromethyl)sulfanyl]imidazo[1,2-a]pyridin-2-yl)prop-2-yn-1-yl]amino}-3-methoxy-N-methylbenzamide]	< 10 nM	≥ 10 °C	≥ 10 °C	80 to 90%	< 750 nM	< 750 nM	< 750 nM	≥ 10000 nM								
CNC(=O)c1cnc(NCC#Cc2nc3c(N[C@@H]4CCN(C)C[C@@H]4F)cccn3c2SC(F)(F)F)n1C [Example 161]	10 to 100 nM	5 to 10 °C	≥ 10 °C	< 70%	> 3000 nM	1500 to 3000 nM	1500 to 3000 nM	≥ 10000 nM								
CNC(=O)c1ccc(NCC#Cc2nc3c(N[C@@H]4CCN(C)C[C@@H]4F)cccn3c2CC(F)(F)F)c(C#N)c1 [Example 56, 3-cyano-4-{[3-(8-{[(3S,4R)-3-fluoro-1-methylpiperidin-4-yl]amino}-3-(2,2,2-trifluoroethyl)imidazo[1,2-a]pyridin-2-yl)prop-2-yn-1-yl]amino}-N-methylbenzamide]	10 to 100 nM		≥ 10 °C	80 to 90%	> 3000 nM	> 3000 nM	> 3000 nM	≥ 10000 nM								
COc1cc(S(C)(=O)=O)ccc1NCC#Cc1cc2c(N[C@@H]3CCN(C)C[C@@H]3F)cccn2c1SC(F)F [Example 344]									< 10 nM	≥ 10 °C	< 750 nM	> 90%	< 750 nM	< 750 nM	5000 to 8000 nM	
CNC(=O)c1ccc(NCC#Cc2nc3c(N[C@@H]4CCNC[C@@H]4F)cccn3c2SC(F)(F)F)c(OC)c1 [Example 100, 4-{[3-(8-{[(3S,4R)-3-fluoropiperidin-4-yl]amino}-3-[(trifluoromethyl)sulfanyl]imidazo[1,2-a]pyridin-2-yl)prop-2-yn-1-yl]amino}-3-methoxy-N-methylbenzamide]	< 10 nM	≥ 10 °C	≥ 10 °C	80 to 90%	< 750 nM	< 750 nM	< 750 nM	5000 to 8000 nM								
COc1cc(S(=O)(=O)C(C)C)ccc1NCC#Cc1nc2c(N[C@@H]3CCN(C)C[C@@H]3F)cccn2c1CC(F)(F)F [Example 77, (3S,4R)-3-fluoro-N-[2-(3-{[2-methoxy-4-(propane-2-sulfonyl)phenyl]amino}prop-1-yn-1-yl)-3-(2,2,2-trifluoroethyl)imidazo[1,2-a]pyridin-8-yl]-1-methylpiperidin-4-amine]	< 10 nM		≥ 10 °C	70 to 80%	< 750 nM	< 750 nM	< 750 nM	5000 to 8000 nM								
CNC(=O)c1ccc(NCC#Cc2nc3c(N[C@@H]4CCn5cncc5C4)cccn3c2SC(F)(F)F)c(OC)c1 [Example 176]	10 to 100 nM	5 to 10 °C	≥ 10 °C	70 to 80%	750 to 1500 nM	1500 to 3000 nM	750 to 1500 nM	5000 to 8000 nM								
CNC(=O)c1ccc(OC)c(NCC#Cc2nc3c(N[C@@H]4CNC[C@@H]4F)cccn3c2SC(F)(F)F)c1 [Example 152]	< 10 nM	≥ 10 °C	≥ 10 °C	70 to 80%	< 750 nM	< 750 nM	< 750 nM	≥ 10000 nM								
COc1cc(S(C)(=O)=O)ccc1NCC#Cc1nc2c(NC3CCN(C4CC4)CC3)cccn2c1CC(F)(F)F [Example 7, 1-cyclopropyl-N-(2-{3-[(4-methanesulfonyl-2-methoxyphenyl)amino]prop-1-yn-1-yl}-3-(2,2,2-trifluoroethyl)imidazo[1,2-a]pyridin-8-yl)piperidin-4-amine]	10 to 100 nM		5 to 10 °C	< 70%	> 3000 nM	1500 to 3000 nM	1500 to 3000 nM	5000 to 8000 nM								
COc1cc(S(C)(=O)=O)ccc1NCC#Cc1cc2c(N[C@@H]3CCN(C)C[C@@H]3F)cccn2c1SC(F)(F)F [Example 341]									< 10 nM	≥ 10 °C	< 750 nM	> 90%	< 750 nM	< 750 nM	5000 to 8000 nM	
COc1cc2n[nH]cc2cc1NCC#Cc1nc2c(N[C@@H]3CCN(C)C[C@@H]3F)cccn2c1SC(F)(F)F [Example 128]	< 10 nM	≥ 10 °C	≥ 10 °C	80 to 90%	< 750 nM	750 to 1500 nM	750 to 1500 nM	< 5000 nM								
CCNC(=O)c1ccc(OC)c(NCC#Cc2nn3c(N[C@@H]4CCN(C)C[C@@H]4F)cccc3c2SC(F)(F)F)c1 [Example 285]									< 10 nM	≥ 10 °C	< 750 nM	80 to 90%	< 750 nM	< 750 nM	5000 to 8000 nM	≥ 10 °C
